Results on 24 molecules are retold here after patent US20160002204A1 (Board of Regents, The University of Texas System, priority 2014, published 2016).

The test addresses T1, GLS1 (purified recombinant human GAC) (Homo sapiens, UniProt O94925).
T1 sequence (O94925 55-598 isoform O94925-3 limits assumed): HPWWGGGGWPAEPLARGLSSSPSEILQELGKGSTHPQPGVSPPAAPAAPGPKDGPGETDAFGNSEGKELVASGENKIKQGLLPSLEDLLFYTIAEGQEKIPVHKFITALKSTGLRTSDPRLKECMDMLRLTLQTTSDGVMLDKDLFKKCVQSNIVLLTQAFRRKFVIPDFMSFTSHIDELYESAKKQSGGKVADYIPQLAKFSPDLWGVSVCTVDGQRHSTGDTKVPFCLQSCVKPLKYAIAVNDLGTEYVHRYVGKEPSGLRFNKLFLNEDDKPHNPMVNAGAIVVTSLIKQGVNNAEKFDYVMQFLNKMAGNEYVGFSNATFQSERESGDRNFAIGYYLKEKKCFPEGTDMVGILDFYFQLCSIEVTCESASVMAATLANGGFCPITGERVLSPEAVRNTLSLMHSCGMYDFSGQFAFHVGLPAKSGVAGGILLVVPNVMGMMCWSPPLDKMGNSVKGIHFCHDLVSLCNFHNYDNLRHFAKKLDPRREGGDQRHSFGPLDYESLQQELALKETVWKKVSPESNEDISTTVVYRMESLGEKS
Kind of test: GLS1 enzymatic activity assay (dual-coupled, Amplex UltraRed/resorufin). The test is classed as biochemical. As to the method: GLS1 Enzymatic Activity Assay
The inhibition of purified recombinant human GAC by varying concentrations of inhibitors is assessed via a dual-coupled enzymatic assay. The glutamate produced by the glutaminase reaction is used by glutamate oxidase to produce α-ketoglutarate, ammonia, and hydrogen peroxide, with this hydrogen peroxide subsequently being used by horseradish peroxidase to produce resorufin in the presence of Amplex UltraRed. The assay buffer consisted of 50 mM Hepes (pH 7.4), 0.25 mM EDTA and 0.1 mM Triton X-100. GAC was incubated with potassium phosphate (10 minutes at room temperature) prior to incubation with inhibitor (10 minutes at room temperature). The final reaction conditions were as follows: 2 nM GAC, 50 mM potassium phosphate, 100 mU/mL glutamate oxidase (Sigma), 1 mM glutamine (Sigma), 100 mU/mL horseradish peroxidase (Sigma), 75 μM Amplex UltraRed (Life Technologies), and 1% (v/v) DMSO. The production of resorufin was monitored on a Perkin Elmer Envision plate reader (excitation 530 nm, emission 590 nm) either in a kinetics or endpoint mode (at 20 minutes). IC50 values were calculated using a four-parameter logistic curve fit.

As for `Cc1ccc(CNC(=O)c2nnc(CCCCn3ccc(NC(=O)Cc4ccccn4)cc3=O)s2)cn1` [Example 444, N-[(6-methylpyridin-3-yl)methyl]-5-(4-{2-oxo-4-[2-(pyridin-2-yl)acetamido]-1,2-dihydropyridin-1-yl}butyl)-1,3,4-thiadiazole-2-carboxamide], the IC50 fell in the range of 100 to 500 nM. The result for `COCCNC(=O)c1nnc(CCCCn2ccc(NC(=O)Cc3ccccc3)cc2=O)s1` [Example 449, N-(2-methoxyethyl)-5-{4-[2-oxo-4-(2-phenylacetamido)-1,2-dihydropyridin-1-yl]butyl}-1,3,4-thiadiazole-2-carboxamide] reads 500 to 5000 nM.

As for `COCCNC(=O)c1nnc(CCCCn2ccc(NC(=O)Cc3ccccn3)cc2=O)s1` [Example 452, N-(2-methoxyethyl)-5-(4-{2-oxo-4-[2-(pyridin-2-yl)acetamido]-1,2-dihydropyridin-1-yl]butyl)-1,3,4-thiadiazole-2-carboxamide], the IC50 was in the range of 500 to 5000 nM. Consider `Nc1ccn(CCCCn2cc(C(=O)NCc3cccc(C(F)(F)F)c3)nn2)c(=O)c1` [Example 140, 1-[4-(4-amino-2-oxo-1,2-dihydropyridin-1-yl)butyl]-N-{[3-(trifluoromethyl)phenyl]methyl}-1H-1,2,3-triazole-4-carboxamide], for which the IC50 lay in the range of 500 to 5000 nM. Turning to `C[C@H](NC(=O)c1ccn(CCCCn2cc(C(=O)NCc3cccc(OC(F)(F)F)c3)nn2)c(=O)c1)C(N)=O` [Example 138, 1-[4-(4-{[(1S)-1-carbamoylethyl]carbamoyl}-2-oxo-1,2-dihydropyridin-1-yl)butyl]-N-{[3-(trifluoromethoxy)phenyl]methyl}-1H-1,2,3-triazole-4-carboxamide], the half-maximal inhibitory concentration (IC50) was 500 to 5000 nM. Regarding `CCN1CCC(CC(=O)Nc2ccn(CCCCn3cc(C(=O)NCc4cccc(OC(F)(F)F)c4)nn3)c(=O)c2)CC1` [Example 207, 1-(4-{4-[2-(1-ethylpiperidin-4-yl)acetamido]-2-oxo-1,2-dihydropyridin-1-yl}butyl)-N-{[3-(trifluoromethoxy)phenyl]methyl}-1H-1,2,3-triazole-4-carboxamide], the IC50 lay in the range of 500 to 5000 nM. As to `O=C(Cc1ccccn1)Nc1ccn(CCCCc2nnc(C(=O)NCc3ncccc3F)s2)c(=O)c1` [Example 457, N-[(3-fluoropyridin-2-yl)methyl]-5-(4-{2-oxo-4-[2-(pyridin-2-yl)acetamido]-1,2-dihydropyridin-1-yl}butyl)-1,3,4-thiadiazole-2-carboxamide], the IC50 lay in the range of 500 to 5000 nM. As for `O=C(Cc1cccc(OC(F)(F)F)c1)Nc1ccn(CCCCn2cc(C(=O)NCc3ccccc3)nn2)c(=O)n1` [Example 115, N-benzyl-1-[4-(2-oxo-4-{2-[3-(trifluoromethoxy)phenyl]acetamido}-1,2-dihydropyrimidin-1-yl)butyl]-1H-1,2,3-triazole-4-carboxamide], the IC50 was 500 to 5000 nM. Turning to `O=C(NCc1ccccc1)c1ccn(CCCn2cc(C(=O)NCc3cccc(OC(F)(F)F)c3)nn2)c(=O)c1` [Example 437, N-benzyl-2-oxo-1-{3-[4-({[3-(trifluoromethoxy)phenyl]methyl}carbamoyl)-1H-1,2,3-triazol-1-yl]propyl}-1,2-dihydropyridine-4-carboxamide], the IC50 is > 5000 nM. For `C[C@@H](NC(=O)c1ccn(CCCCn2cc(C(=O)NCc3cccc(OC(F)(F)F)c3)nn2)c(=O)c1)C(N)=O` [Example 137, 1-[4-(4-{[(1R)-1-carbamoylethyl]carbamoyl}-2-oxo-1,2-dihydropyridin-1-yl)butyl]-N-{[3-(trifluoromethoxy)phenyl]methyl}-1H-1,2,3-triazole-4-carboxamide], the IC50 is 500 to 5000 nM. Regarding `CC(C)CS(=O)(=O)Nc1ccn(CCCCc2ccc(NC(=O)Cc3ccccc3)nn2)c(=O)n1` [Example 26, N-(6-(4-(4-(2-methylpropylsulfonamido)-2-oxopyrimidin-1(2H)-yl)butyl)pyridazin-3-yl)-2-phenylacetamide], the IC50 lay within 500 to 5000 nM. Take `O=C1CN(CC(=O)Nc2ccn(CCC(F)Cn3cc(C(=O)NCc4cccc(OC(F)(F)F)c4)nn3)c(=O)c2)CCN1` (stereo not drawn) [Example 230, 1-(2-fluoro-4-{2-oxo-4-[2-(3-oxopiperazin-1-yl)acetamido]-1,2-dihydropyridin-1-yl}butyl)-N-{[3-(trifluoromethoxy)phenyl]methyl}-1H-1,2,3-triazole-4-carboxamide]: the half-inhibitory concentration (IC50) lay within 100 to 500 nM. For the molecule `Nc1ccn(CCCCc2ccc(NC(=O)Cc3ccccc3)nn2)c(=O)n1` [Example 21, N-(6-(4-(4-amino-2-oxopyrimidin-1(2H)-yl)butyl)pyridazin-3-yl)-2-phenylacetamide], the IC50 was in the range of 500 to 5000 nM. In the case of `O=C(Cc1ccccc1)Nc1ccn(CCCn2cc(C(=O)NCc3cccc(OC(F)(F)F)c3)nn2)c(=O)c1` [Example 436, 1-{3-[2-oxo-4-(2-phenylacetamido)-1,2-dihydropyridin-1-yl]propyl}-N-{[3-(trifluoromethoxy)phenyl]methyl}-1H-1,2,3-triazole-4-carboxamide], the IC50 was > 5000 nM.

Regarding `Nc1ccn(CCC(F)Cn2cc(C(=O)NCc3cc(C(F)(F)F)ccn3)nn2)c(=O)c1F` (stereo not drawn) [Example 322, 1-[4-(4-amino-3-fluoro-2-oxo-1,2-dihydropyridin-1-yl)-2-fluorobutyl]-N-{[4-(trifluoromethyl)pyridin-2-yl]methyl}-1H-1,2,3-triazole-4-carboxamide], the IC50 was > 5000 nM. Consider `CC(=O)Nc1ccn(CCCCn2cc(C(=O)NCc3cccc(C(F)(F)F)c3)nn2)c(=O)c1` [Example 142, 1-[4-(4-acetamido-2-oxo-1,2-dihydropyridin-1-yl)butyl]-N-{[3-(trifluoromethyl)phenyl]methyl}-1H-1,2,3-triazole-4-carboxamide], for which the IC50 lay within 500 to 5000 nM. Regarding `O=C(Cc1ccccn1)Nc1ccn(CCCCc2nnc(C(=O)NCc3ccccn3)s2)c(=O)c1` [Example 448, 5-(4-{2-oxo-4-[2-(pyridin-2-yl)acetamido]-1,2-dihydropyridin-1-yl}butyl)-N-(pyridin-2-ylmethyl)-1,3,4-thiadiazole-2-carboxamide], the half-inhibitory concentration (IC50) lay in the range of 500 to 5000 nM.

For `CC(C)(C)OC(=O)Nc1ccn(CCC(F)Cn2cc(C(=O)NCc3cccc(C(F)(F)F)n3)nn2)c(=O)c1F` (stereo not drawn) [Example 319, tert-butyl N-(3-fluoro-1-{3-fluoro-4-[4-({[6-(trifluoromethyl)pyridin-2-yl]methyl}carbamoyl)-1H-1,2,3-triazol-1-yl]butyl}-2-oxo-1,2-dihydropyridin-4-yl)carbamate], the concentration for half-maximal inhibition (IC50) lay within 100 to 500 nM. `COCCCNc1ccn(CCCCc2ccc(NC(=O)Cc3ccccc3)nn2)c(=O)n1` [Example 25, N-(6-(4-(4-((3-methoxypropyl)amino)-2-oxopyrimidin-1(2H)-yl)butyl)pyridazin-3-yl)-2-phenylacetamide]: the IC50 was in the range of 500 to 5000 nM. As to `CC(C)(C)OC(=O)NCc1cn(CCCCn2ccc(NC(=O)Cc3ccccc3)cc2=O)nn1` [Example 9, tert-Butyl N-[(1-{4-[2-oxo-4-(2-phenylacetamido)-1,2-dihydropyridin-1-yl]butyl}-1H-1,2,3-triazol-4-yl)methyl]carbamate], the IC50 is 500 to 5000 nM. As to `Nc1nnc(CCCCn2ccc(NC(=O)Cc3ccccc3)cc2=O)s1` [Example 30, N-{1-[4-(5-amino-1,3,4-thiadiazol-2-yl)butyl]-2-oxo-1,2-dihydropyridin-4-yl}-2-phenylacetamide], the IC50 was in the range of 500 to 5000 nM.

In the case of `CN1CCN(CC(=O)Nc2ccn(CCC(F)Cn3cc(C(=O)NCc4cccc(OC(F)(F)F)c4)nn3)c(=O)c2)CC1` (stereo not drawn) [Example 254, 1-(2-fluoro-4-{4-[2-(4-methylpiperazin-1-yl)acetamido]-2-oxo-1,2-dihydropyridin-1-yl}butyl)-N-{[3-(trifluoromethoxy)phenyl]methyl}-1H-1,2,3-triazole-4-carboxamide], the IC50 is 100 to 500 nM. Regarding `CCOC(=O)c1cn(CC(F)CCn2ccc(NC(=O)CC3CCCCC3)c(F)c2=O)nn1` (stereo not drawn) [Example 225, ethyl 1-{4-[4-(2-cyclohexylacetamido)-3-fluoro-2-oxo-1,2-dihydropyridin-1-yl]-2-fluorobutyl}-1H-1,2,3-triazole-4-carboxylate], the IC50 is 500 to 5000 nM.

In the case of `Nc1ccn(CCC(F)Cn2cc(C(=O)NCc3cccc(C(F)(F)F)n3)nn2)c(=O)c1F` (stereo not drawn) [Example 321, 1-[4-(4-amino-3-fluoro-2-oxo-1,2-dihydropyridin-1-yl)-2-fluorobutyl]-N-{[6-(trifluoromethyl)pyridin-2-yl]methyl}-1H-1,2,3-triazole-4-carboxamide], the half-inhibitory concentration (IC50) is > 5000 nM.
